# Results published in patent US20230190760A1, “ADVANTAGEOUS THERAPIES FOR DISORDERS MEDIATED BY IKAROS OR AIOLOS” (C4 Therapeutics, Inc., priority 2020, published 2023).
# What was measured:
# NCIH929 cells = assay: NCI-H929 viability assay (CellTiter-Glo)
# KMM-1 = assay: Anti-proliferative activity, 96 hours; settings: KMM-1, 96 h
# KIJK = assay: Anti-proliferative activity, 96 hours
# MM.1S = assay: Anti-proliferative activity, 96 hours; settings: Homo sapiens, MM1.S
# HepG2 liver cancer cells = assay: Viability assay in HepG2 liver cancer cells; assay type: cell-based; settings: concentrations up to 3.3 μM
# NHL cell lines = assay: NHL cell line growth inhibition assay (CellTiter-Glo, 96 hr); assay type: cell-based; settings: variety of cancer assays (FIG. 45A-C, FIG. 52)
# [1] = system: activated B-cell DLBCL lines; assay: Anti-cancer activity in ABC-DLBCL cell lines; assay type: cell-based; settings: three of six responsive, read-out: mean IC50 amongst the responsive lines
# KI-JK ALCL tumors = assay: KI-JK ALCL xenograft efficacy (Example 20); assay type: in vivo, mice; settings: 100 μg/kg PO daily for 21 days
# Method: A xenograft study was conducted in female NOD SCID mice bearing KI-JK ALCL tumors.
# Data are expressed as MTV±SEM.
# RPMI-8226 tumors = assay: RPMI-8226 multiple myeloma xenograft, CB17 SCID mice (Example 13); assay type: in vivo
# Method: (§1) Compound 1 efficacy in two multiple myeloma cell lines (NC-H929) and (RPMI-8226) was evaluated at four different doses: 3 μg/kg, 10 μg/kg, 30 μg/kg, and 100 μg/kg. Compound 1 was administered QD (every day) orally (PO). […]
# Statistical analysis was performed using two-way analysis of variance (ANOVA). Data are expressed as MTV±SEM.
# [2] = system: germinal center B-cell like DLBCL lines; assay: Anti-cancer activity in GCB-DLBCL cell lines; assay type: cell-based; settings: six of eleven responsive, read-out: mean IC50 amongst the responsive lines
# [3] = Plasma PK and interconversion in monkeys; assay type: in vivo; settings: monkey, Compound 1 60 μg/kg or 100 μg/kg PO
# Method: Compound 1 was administered to a rat at a concentration of 30 mg/kg PO and monkeys at a concentration of either 60 μg/kg or 100 μg/kg PO. At the indicated timepoints shown in FIG. 25A and FIG. 25B, plasma samples were collected and the Cmax, half-life, and AUC0-inf were determined for both Compound 1 and a metabolite of Compound 1, Compound 14. The percent of Compound 14 was also determined (Table 13). PK values dose normalized to 1 mg/kg. FIG. 25A is a graph measuring the concentration of Compound 1 or Compound 14 over the course of 24 hours in monkeys administered 100 μg/kg or 60 μg/kg of Compound 1. FIG. 25B is a graph measuring the concentration of Compound 1 or Compound 14 over the course of 24 hours in a rat administered 30 mg/kg of Compound 1.
# tumor xenografts = assay: Mouse xenograft tumor models (summary); assay type: in vivo
# Method: as §1
# [4] = system: 87 potential unintended molecular targets; assay: In vitro binding or activity against 87 potential unintended molecular targets; settings: 100 nM, 500× the free plasma exposure (Cmax) of maximum in vivo efficacy
# NCIH929.1 cells = assay: NCIH929.1 cell viability assay (CellTiter-Glo, GI50); assay type: cell-based; settings: 96 hr
# cereblon-DDB1 = cereblon-DDB1 (Homo sapiens, UniProt Q96SW2); assay: Fluorescent polarization: probe displacement from purified cereblon-DDB1; assay type: binding; settings: competition with Alexa-647 based fluorescence probe
# Method: Columns 23 and 24 are reserved for 0% (5 nM probe) and 100% controls (protein at high concentration with 5 nM probe), respectively. […] Plates were read on an Envision plate reader with appropriate FP filter sets.
# [5] = target: T1, cereblon-NanoLuc fusion protein in 293T cells (Homo sapiens, UniProt Q96SW2); assay: In-cell cereblon competition (NanoBRET tracer displacement); assay type: cell-based; settings: 2 hours at 37° C.; read-out: IC50, 50% of the tracer displaced
# T1 construct: expressed in transfected cells; host or cells: 293T cells, lentiviral
# SU-DHL-1 = assay: Anti-proliferative activity, 96 hours; settings: Homo sapiens, SU-DHL-1, 96 h
# DL-40 ALCL tumors = assay: DL-40 ALCL xenograft efficacy (Example 19); assay type: in vivo, mice
# Method: A xenograft study was conducted in female NOD SCID mice bearing DL-40 ALCL tumors. […]
# KARPASS422 = assay: Anti-proliferative activity, 96 hours
# TMD8 DLBCL tumors = settings: Compound 1 50 μg/kg, Ibrutinib 12500 μg/kg
# [6] = target: T2, Sal-like protein 4 (SALL4) (Homo sapiens, UniProt Q96SW2+Q9UJQ4); assay: SALL4 degradation in KELLY neuroblastoma cell line; assay type: cell-based; settings: at 10 nM
# T2 construct: endogenous in cells; host or cells: KELLY neuroblastoma cell line
# Method: Specific studies were carried out to assess the ability of Compound 1 to degrade Sal-like protein 4 (SALL4), a protein implicated in the teratogenicity induced by the IMiD®s class of IKZF1/IKZF3 degraders.
structure (smiles),measurement,setting,value
"O=C1CC[C@H](N2C(=O)c3cccc4c(Cc5ccc(CN6CCOCC6)cc5)ccc2c34)C(=O)N1 (single isomer, unassigned) [Compound 1]","Mean Emax (%) ± SD, H929 Viability","NCIH929 cells; 96 hours, % viability",4.0 ± 0.5%
same,maximal growth inhibition,NCIH929 cells; previously untreated NCIH929,96%
same,IC50,"NCIH929 cells; read-out: Mean IC50 (nM), H929 Viability, 96 hours",0.071 nM
same,IC50,KMM-1,0.059 nM
same,IC50,KIJK,0.583 nM
same,IC50,MM.1S,0.036 nM
same,effect on viability,HepG2 liver cancer cells,no significant effect
same,more potent than pomalidomide,NHL cell lines,more than 100 fold
same,IC50,[1],1.6 nM
same,tumor volume,KI-JK ALCL tumors,reduced tumor volume
same,Statistical Significance Compared to Vehicle,RPMI-8226 tumors; 30 μg/kg PO QD,0.01
same,Statistical Significance Compared to Vehicle,RPMI-8226 tumors; 100 μg/kg PO QD,0.009
same,IC50,[2],12 nM
same,AUC(0-inf),[3]; dose normalized to 1 mg/kg,1280 ng·h/mL
same,Cmax,[3]; dose normalized to 1 mg/kg,83 ng/mL
same,half-life,[3]; read-out: T ½ (converted),9 h
same,tumor response,"tumor xenografts; daily dosing at 30 μg/kg/day to 100 μg/kg/day, several tumor xenografts",durable tumor regression
same,efficacy,tumor xenografts; from 3 μg/kg/day to 100 μg/kg/day,dose dependent efficacy
same,off-target inhibition,[4],no targets inhibited >50%
same,GI50,NCIH929.1 cells,0.0743 nM
same,Kd,cereblon-DDB1,0.9 nM
same,IC50,[5],0.4 nM
same,IC50,SU-DHL-1,0.415 nM
same,Statistical Significance Compared to Vehicle,DL-40 ALCL tumors; 3 μg/kg PO daily,0.0111
same,Statistical Significance Compared to Vehicle,DL-40 ALCL tumors; 10 μg/kg PO daily,0.0006
same,Statistical Significance Compared to Vehicle,DL-40 ALCL tumors; 30 μg/kg PO daily,0.0004
same,Statistical Significance Compared to Vehicle,DL-40 ALCL tumors; 100 μg/kg PO daily,0.0004
same,Statistical Significance Compared to Vehicle,DL-40 ALCL tumors; 300 μg/kg PO daily,0.0004
same,tumor volume,"DL-40 ALCL tumors; 30, 100, and 300 μg/kg, 21 days",able to reduce tumor volume
same,IC50,KARPASS422,0.189 nM
same,Median Survival,"TMD8 DLBCL tumors; Combination of both, PO daily",30
same,Statistical Significance Compared to Vehicle,"TMD8 DLBCL tumors; survival, Logrank, Combination",0.02
same,degradation of SALL4,[6],more than 85%
